In patent publication US20250163038A1, “CBL-B MODULATORS AND USES THEREOF” (Nimbus Clio, Inc., priority 2021, published 2025):

Legend:
[1] = target: Recombinant human Cbl-b (aa 36-427) (Homo sapiens, UniProt Q13191); experiment: Cbl-b Biochemical Assay (TR-FRET); details: read-out: TR-FRET hCbl-b IC50
[2] = system: Jurkat (clone E6-1) cells with NFAT luciferase reporter; experiment: Jurkat reporter assay (NFAT Luciferase); format: cell-based; details: Homo sapiens; Jurkat NFAT luciferase reporter cells, anti-CD3 stimulation, 6 hr; read-out: Jurkat NFAT EC50
[3] = target: T1, Recombinant human c-Cbl (aa 47-435) (Homo sapiens, UniProt P22681); experiment: c-Cbl Biochemical Assay (TR-FRET); details: hc-Cbl Biochemical Assay (TR-FRET); read-out: TR-FRET hcCbl IC50
T1 sequence (P22681 47-435): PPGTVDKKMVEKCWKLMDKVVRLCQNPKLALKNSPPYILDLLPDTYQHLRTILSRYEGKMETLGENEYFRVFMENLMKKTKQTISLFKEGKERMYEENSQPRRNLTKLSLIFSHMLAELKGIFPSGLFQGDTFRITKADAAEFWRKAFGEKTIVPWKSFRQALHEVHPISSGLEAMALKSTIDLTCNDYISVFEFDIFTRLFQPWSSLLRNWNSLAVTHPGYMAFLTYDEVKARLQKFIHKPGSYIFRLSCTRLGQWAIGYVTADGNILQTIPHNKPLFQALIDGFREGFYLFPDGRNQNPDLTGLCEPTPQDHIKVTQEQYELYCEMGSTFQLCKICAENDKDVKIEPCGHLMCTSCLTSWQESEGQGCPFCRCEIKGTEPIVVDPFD

Recombinant human Cbl-b (aa 36-427), sequence (Q13191 36-427): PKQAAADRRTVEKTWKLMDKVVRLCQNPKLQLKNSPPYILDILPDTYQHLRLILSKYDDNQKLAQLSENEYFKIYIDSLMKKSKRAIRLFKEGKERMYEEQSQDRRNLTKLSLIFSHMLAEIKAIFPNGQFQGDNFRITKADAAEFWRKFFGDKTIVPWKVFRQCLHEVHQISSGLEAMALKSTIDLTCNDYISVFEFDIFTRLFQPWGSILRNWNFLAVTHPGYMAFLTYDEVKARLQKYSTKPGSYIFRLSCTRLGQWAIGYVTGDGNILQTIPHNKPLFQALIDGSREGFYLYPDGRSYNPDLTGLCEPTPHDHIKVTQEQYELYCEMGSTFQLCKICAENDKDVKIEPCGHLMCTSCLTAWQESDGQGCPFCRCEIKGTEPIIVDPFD

Compound	IC50 [1] [nM]	EC50 [2] [nM]	IC50 [3] [nM]
COCCNCc1ccc2oc(-c3cccc(-c4ccc(F)cc4-c4nncn4C)c3)nc2c1 [DZ-1, N-((2-(4′-Fluoro-2′-(4-methyl-4H-1,2,4-triazol-3-yl)-[1,1′-biphenyl]-3-yl)benzo[d]oxazol-5-yl)methyl)-2-methoxyethan-1-amine]	200 to 1000	1000 to 10000	200 to 1000
CC(C)CC1(CNCc2cc(C(F)(F)F)c3oc(-c4cccc(-c5ccc(F)cc5-c5nncn5C)c4)nc3c2)CCC1 [HQ-2, 1-(2-(4′-Fluoro-2′-(4-methyl-4H-1,2,4-triazol-3-yl)-[1,1′-biphenyl]-3-yl)-7-(trifluoromethyl)benzo[d]oxazol-5-yl)-N-((1-isobutylcyclobutyl)methyl)methanamine]	< 200	200 to 1000	< 200
COC1(CN[C@H](C)c2cc(F)c3oc(-c4cc(-c5ccc(F)cc5-c5nncn5C)cc(C5CC5)n4)nc3c2)CCC1 [AFT-1, [(1R)-1-(2-{6-Cyclopropyl-4-[4-fluoro-2-(4-methyl-1,2,4-triazol-3-yl)phenyl]pyridin-2-yl}-7-fluoro-1,3-benzoxazol-5-yl)ethyl][(1-methoxycyclobutyl)methyl]amine]	< 200	1000 to 10000	200 to 1000
Cn1cnnc1-c1cc(F)ccc1-c1cccc(-c2nc3cc(CNCC4(O)CCC4)ccc3o2)c1 [DQ-1, 1-((((2-(4′-Fluoro-2′-(4-methyl-4H-1,2,4-triazol-3-yl)-[1,1′-biphenyl]-3-yl)benzo[d]oxazol-5-yl)methyl)amino)methyl)cyclobutan-1-ol]	< 200	< 200	< 200
Cn1cnnc1-c1cc(F)ccc1-c1cccc(-c2nc3cc(N[C@@H]4CCC[C@@H]4O)cc(C(F)(F)F)c3o2)c1 [HV-3, (1S,2R)-2-((2-(4′-Fluoro-2′-(4-methyl-4H-1,2,4-triazol-3-yl)-[1,1′-biphenyl]-3-yl)-7-(trifluoromethyl)benzo[d]oxazol-5-yl)amino)cyclopentan-1-ol]	200 to 1000	10000 to 50000	1000 to 10000
COc1cc(CN[C@@H]2CCC[C@@H]2O)cc2nc(-c3cc(-c4ccc(F)cc4-c4nncn4C)cc(C4CC4)n3)oc12 [AEY-2]	< 200	< 200	< 200
[2H]C([2H])([2H])N(Cc1cc(C(F)(F)F)c2oc(-c3cccc(-c4ccc(F)cc4-c4nncn4C)c3)nc2c1)[C@@H]1CCC[C@@H]1O [IT-1, (1S,2R)-2-(((2-(4′-Fluoro-2′-(4-methyl-4H-1,2,4-triazol-3-yl)-[1,1′-biphenyl]-3-yl)-7-(trifluoromethyl)benzo[d]oxazol-5-yl)methyl)(methyl-d3)amino)cyclopentan-1-ol]	< 200	< 200	< 200
Cn1cnnc1-c1cc(F)ccc1-c1cccc(-c2nc3cc(CNCC4CCCC4)cc(C(F)(F)F)c3o2)c1 [DV-2, 1-Cyclopentyl-N-((2-(4′-fluoro-2′-(4-methyl-4H-1,2,4-triazol-3-yl)-[1,1′-biphenyl]-3-yl)-7-(trifluoromethyl)benzo[d]oxazol-5-yl)methyl)methanamine]	< 200	< 200	< 200
Cn1cnnc1-c1cc(F)ccc1-c1cccc(-c2nc3cc(CNC[C@@]4(C)CCO4)cc(C(F)(F)F)c3o2)c1 [HL-2, (R)-1-(2-(4′-Fluoro-2′-(4-methyl-4H-1,2,4-triazol-3-yl)-[1,1′-biphenyl]-3-yl)-7-(trifluoromethyl)benzo[d]oxazol-5-yl)-N-((2-methyloxetan-2-yl)methyl)methanamine]	< 200	200 to 1000	< 200
Cc1cc(CN[C@@H]2CCC[C@@H]2O)c(F)c2nc(-c3cccc(-c4ccc(F)cc4-c4nncn4C)c3)oc12 [IQ-8, (1S,2R)-2-(((4-Fluoro-2-(4′-fluoro-2′-(4-methyl-4H-1,2,4-triazol-3-yl)-[1,1′-biphenyl]-3-yl)-7-methylbenzo[d]oxazol-5-yl)methyl)amino)cyclopentan-1-ol]	< 200	< 200	< 200
COc1cc(CNC2CCC2)cc2nc(-c3cccc(-c4ccc(F)cc4-c4nncn4C)c3)oc12 [GH-1, N-((2-(4′-Fluoro-2′-(4-methyl-4H-1,2,4-triazol-3-yl)-[1,1′-biphenyl]-3-yl)-7-methoxybenzo[d]oxazol-5-yl)methyl)cyclobutanamine]	< 200	200 to 1000	200 to 1000
Cn1cnnc1-c1cc(F)ccc1-c1cccc(-c2nc3cc(CN[C@@H]4CCC[C@@H]4O)cc(F)c3o2)c1 [ED-7, (1S,2R)-2-(((7-Fluoro-2-(4′-fluoro-2′-(4-methyl-4H-1,2,4-triazol-3-yl)-[1,1′-biphenyl]-3-yl)benzo[d]oxazol-5-yl)methyl)amino)cyclopentan-1-ol]	< 200	< 200	< 200
Cn1cnnc1-c1cc(F)ccc1-c1cc(-c2nc3cc(CNCC4(O)CCC4)cc(C(F)(F)F)c3o2)cc(C2CC2)c1 [JS-1, 1-((((2-(5-Cyclopropyl-4′-fluoro-2′-(4-methyl-4H-1,2,4-triazol-3-yl)-[1,1′-biphenyl]-3-yl)-7-(trifluoromethyl)benzo[d]oxazol-5-yl)methyl)amino)methyl)cyclobutan-1-ol]	< 200	< 200	< 200
C[C@H]1CCCN(Cc2cc(C(F)(F)F)c3[nH]c(-c4cccc([C@]5(c6nncn6C)C[C@@H](C)C5)c4)nc3c2)C1 [AAX-12, 6-{[(3S)-3-Methylpiperidin-1-yl]methyl}-2-{3-[(1r,3s)-3-methyl-1-(4-methyl-1,2,4-triazol-3-yl)cyclobutyl]phenyl}-4-(trifluoromethyl)-3H-1,3-benzodiazole]	< 200	1000 to 10000	10000 to 50000
Cn1cnnc1-c1cc(F)ccc1-c1cccc(-c2nc3cc(CN4CC[C@@H](C#N)C4)cc(C(F)(F)F)c3o2)c1 [DR-2, (R)-1-((2-(4′-Fluoro-2′-(4-methyl-4H-1,2,4-triazol-3-yl)-[1,1′-biphenyl]-3-yl)-7-(trifluoromethyl)benzo[d]oxazol-5-yl)methyl)pyrrolidine-3-carbonitrile]	< 200	200 to 1000	< 200
Cn1cnnc1-c1cc(F)ccc1-c1cccc(-c2nc3cc(CN4CCC5(CC5)C4)cc(C(F)(F)F)c3o2)c1 [AAL-5, 5-((5-Azaspiro[2.4]heptan-5-yl)methyl)-2-(4′-fluoro-2′-(4-methyl-4H-1,2,4-triazol-3-yl)-[1,1′-biphenyl]-3-yl)-7-(trifluoromethyl) benzo[d]oxazole]	< 200	1000 to 10000	1000 to 10000
Cn1cnnc1-c1cc(F)ccc1-c1cccc(-c2nc3cc(CN[C@@H]4CCC[C@@H]4O)ccc3[nH]2)c1 [BY-1, (1S,2R)-2-(((2-(4′-Fluoro-2′-(4-methyl-4H-1,2,4-triazol-3-yl)-[1,1′-biphenyl]-3-yl)-1H-benzo[d]imidazol-5-yl)methyl)amino)cyclopentan-1-ol]	< 200	1000 to 10000	1000 to 10000
Cn1cnnc1-c1cc(F)ccc1-c1cccc(-c2nc3cc(CNCC4(O)CC4)cc(C(F)(F)F)c3[nH]2)c1 [BV-1, 1-((((2-(4′-Fluoro-2′-(4-methyl-4H-1,2,4-triazol-3-yl)-[1,1′-biphenyl]-3-yl)-7-(trifluoromethyl)-1H-benzo[d]imidazol-5-yl)methyl)amino)methyl)cyclopropan-1-ol]	< 200	200 to 1000	1000 to 10000
